The values that follow come from patent US20210380586A1, “2-INDOLYL IMIDAZO[4,5-D]PHENANTHROLINE POLYMORPHS AND COMPOSITIONS REGARDING THE SAME” (Aptose Biosciences Inc., priority 2020, published 2021).

Series [1] is described as follows: Formulation development: solubility and clinical infusion simulation through 5 μm in-line filter. In kind it is physicochemical. On the procedure: Various pharmaceutical compositions were prepared in order to develop a formulation suitable for IV administration. […] A desirable IV pharmaceutical composition will be a solution. Further, a desirable IV pharmaceutical composition, when diluted with IV fluids will remain in solution. In addition, a desirable IV pharmaceutical composition, when diluted with IV fluids will remain in solution and pass an in-line filter of about 5 μm.
Clinical infusion simulation study: formulated Compound I (equivalent to 4 mg/mL Compound I free base tetrahydrate) was mixed in-line with Lactated Ringers IV Solution through a controlled delivery system employing infusion pumps. The blended liquid was passed through a 5 μm in-line filter and the eluate was then passed to the end of the infusion line. Sample analysis was performed by collecting materials at 0, 15, 30, 60, 75, 90, 105, 115 and 120 minutes and analyzing immediately be visual assessment under a microscope.

For series [2], the system named is acute myeloid leukemia (AML) cell lines. The series is described as follows: In vitro antiproliferative assay. In kind it is cell-based. An excerpt: (§1) Compound I free base and Compound I HCl salt were both tested for their in vitro antiproliferative potency against acute myeloid leukemia (AML) cell lines, for their concentration-dependent abilities to induce in vitro changes in gene expression (KLF4, c-Myc, CDX2, p21, and GAPDH genes) and to induce cell cycle arrest and apoptosis in AML cell lines.

The subject of series [3] is KLF4, c-Myc, CDX2, p21, and GAPDH genes. The series is described as follows: In vitro changes in gene expression. The settings on record: AML cell lines. In kind it is cell-based.
Excerpt: as §1

Series [4] relates to AML cell lines. The series is described as follows: Induction of cell cycle arrest and apoptosis. The format is cell-based.
Excerpt: as §1

Series [5] concerns c-Myc oncogene. Briefly: Inhibition of c-Myc expression in cancer cells. In kind it is cell-based. Conditions: human-derived solid tumor and hematologic cancer cells. An excerpt:
(§2) Compound I is a small molecule that inhibits expression of the c-Myc oncogene, leading to cell cycle arrest and programmed cell death (apoptosis) in human-derived solid tumor and hematologic cancer cells.

Series [6] has as its system xenograft models of solid tumors and hematologic cancers. Briefly: Nonclinical pharmacology xenograft studies. In kind it is in vivo.
Excerpt: as §2

Molecules are shown by their SMILES.

With `Cc1[nH]c2ccc(F)cc2c1-c1nc2c3cccnc3c3ncccc3c2[nH]1` [Compound I, 2-(5-fluoro-2-methyl-1H-indol-3-yl)-1H-imidazo[4,5-f][1,10]phenanthroline], the “solubility compared with Compound I-HCl under the same conditions” value in series [1] (Solutol HS 15, PG, PEG-400, water) is “more soluble”. The “apparent solubility while adding water to the formulation” value in series [1] (in the beginning, approximately 3-10 mL water added) is “more soluble”; in series [1] (upon complete addition of water (up to 60 mL), cloudy formulation), “insoluble”. For the same compound, the “behaviour upon addition of IV fluid” value in series [1] (pharmaceutical composition prepared with Fischer Scientific's PG) is on record as “crashed out of solution”. In addition, the “effect of PEG-400 on solubility” value in series [1] (tested conditions (entries 2 and 3)) is given as “did not improve solubility”. In addition, the “in vitro antiproliferative potency, free base versus HCl salt” value in series [2] was “behaved equivalently”. In series [3], the “concentration-dependent in vitro changes in gene expression, free base versus HCl salt” value is “behaved equivalently”. For the same compound, the “induction of cell cycle arrest and apoptosis, free base versus HCl salt” value in series [4] was “behaved equivalently”. For the same compound, the “expression of the c-Myc oncogene” value in series [5] is listed as “inhibits”. Further, the “in vivo anti-tumor activity” value in series [6] is recorded as “demonstrated in vivo anti-tumor activity”.
